{"source": "paper PMC8298375", "about": "(Naunyn-Schmiedeberg's Archives of Pharmacology, 2021)", "assay_type_in_all_cases": "in vivo, Wistar rats", "key": {"[1]": {"test_system": "ICV colchicine-induced dementia rats", "assay": "Locomotor activity (photoactometer), colchicine-induced dementia", "details": "colchicine model, Mean ± SEM, photo beam counts for 5 min", "method": "In the chronic model, the rats were trained for MWM and PAT tasks for the first 4 days followed by intracerebroventricular (i.c.v.) administration of colchicine on day 6. After establishing dementia on day 10 of the colchicine administration, the drug treatment was initiated from day 11 to 24. The effects of different drug treatments on dementia were assessed on days 14 and 21. On these particular days, the swim test was performed 15 min after the administration of different treatments and escape latencies; residence time and peripheral swim time were recorded (Nampoothiri [2017]). The retention trials for PAT on day 17 and 23 were performed on days 17 and 23, 15 min after the administration of the drug.\nOn the 6th day, surgery was performed as described (Bokare et al. [2018]). Rat was anesthetized with sodium pentobarbital (45 mg/kg, i.p.) and positioned in stereotaxic apparatus. The head was positioned in a frame, and a midline sagittal incision was made in the scalp. […]\nLocomotor activity was assessed in animals using a digital photoactometer (INCO, India) which contains a cage that is 30-cm long and 30-cm deep with a wire mesh at the bottom. […] Then, the ambulatory movements were recorded for 5 min and expressed in terms of total photo beam counts for 5 min per animal."}, "[2]": {"test_system": "scopolamine-induced amnesia rats", "assay": "Locomotor activity (photoactometer), scopolamine-induced amnesia", "details": "scopolamine model, Mean ± SEM, photo beam counts for 5 min", "method": "(§1) In the acute model, the rats were trained for Morris water maze (MWM) and passive avoidance test (PAT) tasks in the first 4 days. On the 5th day, 30 min after scopolamine administration, respective treatments were given to all the groups. Fifteen minutes thereafter, the test trials were conducted in MWM and PAT.\nLocomotor activity was assessed in animals using a digital photoactometer (INCO, India) which contains a cage that is 30-cm long and 30-cm deep with a wire mesh at the bottom. The apparatus was placed in a dark, light, and sound attenuated testing room. Before the locomotor task, animals were placed individually in the activity meter for 3 min for habituation. Then, the ambulatory movements were recorded for 5 min and expressed in terms of total photo beam counts for 5 min per animal."}, "[3]": {"assay": "Pharmacokinetic study in scopolamine-induced amnesic rats (plasma)", "details": "for Absolute F: absolute bioavailability; for Cl_F_obs: clearance; for DN Cmax: dose-normalised Cmax; for Vz_F_obs: volume of distribution", "method": "Samples were then centrifuged at 10,000 rpm for 5 min, and plasma was stored at − 70 °C until analysis.\nBriefly, to an aliquot of 100 µL of rat plasma, 10 µL of IS (1 µg/mL) was added and vortexed for 30 s. Then, 1 mL of TBME tertiary methyl butyl ether) was added and vortexed for 10 min, thereafter centrifuged at 10,000 rpm for 5 min. From the supernatant, 0.9 mL of organic solvent was aspirated and evaporated in a turbo evaporator (Zymark, Hopkinton, MA, USA) at 50 ± 2 °C under the stream of nitrogen. The dried residue was reconstituted with 150 µL of mobile phase, and 50 µL was injected for the HPLC analysis. A full validation according to the US-FDA guidelines was performed in rat plasma. Plasma samples were analyzed by previously validated HPLC with fluorescence detection method (Arumugam [2011]).\nHPLC analysis was carried out on Shimadzu LC-20AD Prominence (Shimadzu Corporation, Kyoto, Japan) equipped with LC-20AD pump, RF-10A-XL fluorescence detector, column oven (CTO-10AS VP), autosampler SIL-20AC HT, and LC solution version 1.24 SP1. The column oven temperature was maintained at 25 °C. The chromatographic separation was achieved by Intersil, ODS-3 V, C18 (250 × 4.6 mm, 5 µm) column (GL Sciences Inc., Japan). Isocratic elution was performed with ammonium acetate buffer (20 mM, pH 4.5) and acetonitrile 74:26 (v/v) as mobile phase. The flow rate was maintained at 1 mL/min, and the injection volume was 50 µL. Fluorimetric detection was used, and excitation and emission wavelength were 220 nm and 293 nm, respectively. The sensitivity of the detector was “medium”, and the response kept at 3. Venlafaxine (IS) was prepared separately in methanol to yield primary standard solutions with a concentration of 1 mg/mL.\nThe pharmacokinetic parameters were calculated using non-compartmental analysis, PK solution 2.1software (Summit Research Services, Montrose, Colorado, USA). The area under the curve (AUC) from zero to infinity is calculated using the trapezoidal method. The terminal elimination rate constant (β) was obtained by plotting log-linear concentration versus time; the corresponding half-life (t1/2β) was calculated by 0.693/β. […] The clearance (CL) and volume of distribution (Vd) were calculated as follows: CL=Dose/AUC0-∞,Vd(apparent)=CL/β"}, "[4]": {"test_system": "scopolamine-induced amnesia rats", "assay": "Morris water maze test, scopolamine-induced amnesia (acute model)", "details": "scopolamine 1 mg/kg i.p., Mean ± SEM; for Escape latency: test 15 min after treatment", "method": "as §1\nA modified Morris water maze test was used (Nampoothiri [2017]). The pool was positioned in the middle of a dimly lit testing room with distant visual clues that could be used by rats for spatial orientation. The maze consisted of a circular water pool (140 × 45 cm) divided into four equally sized quadrants (NE, SE, SW, and NW) by two imaginary diagonal lines running across the center of the pool. The pool was filled with water maintained at a temperature of 23 ± 2 °C. In the NE quadrant (target quadrant) equidistant from the center and edge of the pool, a platform of 25-cm height and 10-cm diameter was invisibly placed submerged 1 cm below the water surface. Rats were gently placed in each quadrant facing the wall and trained to locate the hidden black platform, and the trial was terminated when the rat reached the platform or after 60 s. Accordingly, rats were subjected to one session of four trials per day for four consecutive days. All rats were left on the platform for 30 s and then removed and towel dried. Inter-trial interval was kept a constant 180 s throughout the study. In the probe trial, platform was removed, and rats were allowed to swim for a 60-s trial period. Data was collected in the form of escape latencies to find the platform; percent of time spent over the target quadrant."}, "[5]": {"details": "Wistar, rat, oral (ORSM), other: intranasal (INRSM)"}}, "note": "Where two headings read alike, the source gives them in different places."}
{"compound": "CCN(C)C(=O)Oc1cccc([C@H](C)N(C)C)c1", "note": "[ORSM, rivastigmine]", "values": [{"measurement": "Score on actophotometer", "setting": "[1]; listed as COL + ORSM", "result": "240.00 ± 19.54"}, {"measurement": "Score on actophotometer", "setting": "[2]; listed as SCP + ORSM", "result": "238.16 ± 20.88"}, {"measurement": "MRT", "setting": "[3]; Wistar, rat, oral (ORSM), other: intranasal (INRSM), read-out: MRT (converted)", "result": 27.6, "unit": "min"}, {"measurement": "clearance", "setting": "[3]; Wistar, rat, oral, 2.5 mg/kg, read-out: clearance rate", "result": "1500 ± 760", "unit": "mL/min"}, {"measurement": "Vd", "setting": "[3]; Wistar, rat, oral, 2.5 mg/kg, read-out: volume of distribution", "result": "29.2 ± 14.3", "unit": "L/kg"}, {"measurement": "Tmax", "setting": "[3]; Wistar, rat, po", "result": 15, "unit": "min"}, {"measurement": "half-life", "setting": "[3]; Wistar, rat, po", "result": "13.5 ± 5.79", "unit": "min"}, {"measurement": "k el", "setting": "[3]; Wistar, rat, po", "result": 0.000857, "unit": "s⁻¹"}, {"measurement": "AUC(0-inf)", "setting": "[3]; Wistar, rat, po, 2.5 mg/kg", "result": 0.0277, "unit": "µg·h/mL"}, {"measurement": "Cmax", "setting": "[3]; Wistar, rat, po, 2.5 mg/kg", "result": "0.0563 ± 0.0271", "unit": "µg/mL"}, {"measurement": "Absolute F", "setting": "[3]", "result": "4.39 ± 1.82", "unit": "%"}, {"measurement": "Absolute F", "setting": "[3]; listed as oral rivastigmine", "result": "4.39 ± 1.82", "unit": "%"}, {"measurement": "Cl_F_obs", "setting": "[3]", "result": "1502.59 ± 763.25", "unit": "mL/min"}, {"measurement": "DN Cmax", "setting": "[3]", "result": "0.02251 ± 0.01082", "unit": "µg/mL"}, {"measurement": "Vz_F_obs", "setting": "[3]", "result": "29.23 ± 14.35", "unit": "L"}, {"measurement": "Escape latency", "setting": "[4]; listed as SCP + ORSM", "result": "3.89 ± 0.44", "unit": "s"}]}
{"compound": "CCN(C)C(=O)Oc1cccc([C@H](C)N(C)C)c1", "note": "[INRSM, rivastigmine]", "values": [{"measurement": "Score on actophotometer", "setting": "[1]; listed as COL + INRSM", "result": "265.66 ± 17.95"}, {"measurement": "Score on actophotometer", "setting": "[2]; listed as SCP + INRSM", "result": "296.50 ± 17.68"}, {"measurement": "MRT", "setting": "[3]", "result": "32.12 ± 16.46", "unit": "min"}, {"measurement": "Cmax", "setting": "[3]; Wistar, rat, inhaled or intranasal, 2 mg/kg", "result": "0.994 ± 0.471", "unit": "µg/mL"}, {"measurement": "Tmax", "setting": "[3]; [5]", "result": 5, "unit": "min"}, {"measurement": "half-life", "setting": "[3]; [5]", "result": "30.5 ± 10.8", "unit": "min"}, {"measurement": "k el", "setting": "[3]; [5]", "result": 0.000378, "unit": "s⁻¹"}, {"measurement": "AUC(0-inf)", "setting": "[3]; Wistar, rat, other: intranasal, 2 mg/kg", "result": 0.33, "unit": "µg·h/mL"}, {"measurement": "Absolute F", "setting": "[3]", "result": "65.44 ± 14.57", "unit": "%"}, {"measurement": "Cl_F_obs", "setting": "[3]", "result": "100.95 ± 36.47", "unit": "mL/min"}, {"measurement": "DN Cmax", "setting": "[3]", "result": "0.49723 ± 0.23552", "unit": "µg/mL"}, {"measurement": "Vz_F_obs", "setting": "[3]", "result": "4.45 ± 1.72", "unit": "L"}, {"measurement": "Peripheral swim time", "setting": "[4]; listed as SCP + INRSM", "result": "34.22 ± 0.74", "unit": "s"}, {"measurement": "Escape latency", "setting": "[4]; listed as SCP + INRSM", "result": "3.11 ± 0.36", "unit": "s"}]}
